Measurements reported in patent US11407771B2 (priority 2018, dated 2022).
Read-outs that look alike come from different tables or passages of the source.

Target: MAPK13 (Homo sapiens (Human), UniProt O15264)
Sequence (O15264 whole entry): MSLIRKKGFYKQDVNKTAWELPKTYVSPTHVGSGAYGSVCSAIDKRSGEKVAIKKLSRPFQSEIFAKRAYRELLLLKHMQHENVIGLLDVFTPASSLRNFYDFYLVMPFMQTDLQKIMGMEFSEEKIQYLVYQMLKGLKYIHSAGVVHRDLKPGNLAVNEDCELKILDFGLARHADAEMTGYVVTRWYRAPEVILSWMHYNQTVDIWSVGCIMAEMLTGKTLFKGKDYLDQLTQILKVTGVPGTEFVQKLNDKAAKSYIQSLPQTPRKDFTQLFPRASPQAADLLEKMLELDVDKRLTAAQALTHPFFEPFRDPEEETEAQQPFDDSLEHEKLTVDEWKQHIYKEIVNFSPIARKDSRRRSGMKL

Row | Compound | IC50 (read-out: MAPK13 inhibition) | IC50 (read-out: MAPK13 IC50)
1 | COCC(=O)Nc1cc(Oc2ccc(NC(=O)Nc3cc(C4(C)COC4)nn3-c3ccc(C)cc3)cc2)ccn1 [Compound 259, 2-Methoxy-N-[4-(4-{3-[5-(3-methyl-oxetan-3-yl)-2-p-tolyl-2H-pyrazol-3-yl]-ureido}-phenoxy)-pyridin-2-yl]-acetamide] | < 250 nM | –
2 | COCC(=O)Nc1cc(Oc2ccc(NC(=O)Nc3cc(C4(C)CSC4)nn3-c3ccc(C)cc3)cc2)ccn1 [Compound 260, 2-Methoxy-N-[4-(4-{3-[5-(3-methyl-thietan-3-yl)-2-p-tolyl-2H-pyrazol-3-yl]-ureido}-phenoxy)-pyridin-2-yl]-acetamide] | < 250 nM | –
3 | COC(=O)Nc1cc(Oc2ccc(NC(=O)Nc3cc(C4(C)COC4)nn3-c3ccc(C)cc3)cc2)ccn1 [Compound 261, [4-(4-{3-[5-(3-Methyl-oxetan-3-yl)-2-p-tolyl-2H-pyrazol-3-yl]-ureido}-phenoxy)-pyridin-2-yl]-carbainic acid methyl ester] | < 250 nM | –
4 | COC(=O)Nc1cc(Oc2ccc(NC(=O)Nc3cc(C4(C)CSC4)nn3-c3ccc(C)cc3)cc2)ccn1 [Compound 262, [4-(4-{3-[5-(3-Methyl-thietan-3-yl)-2-p-tolyl-2H-pyrazol-3-yl]-ureido}-phenoxy)-pyridin-2-yl]-carbamic acid methyl ester] | < 250 nM | –
5 | Cc1ccc(-n2nc(C3(C)CSC3)cc2NC(=O)Nc2ncc(CCc3ccncc3)s2)cc1 [Compound 273, 1-[5-(3-Methyl-thietan-3-yl)-2-p-tolyl-2H-pyrazol-3-yl]-3-[5-(2-pyridin-4-yl-ethyl)-thiazol-2-yl]-urea] | < 250 nM | –
6 | CCNC(=O)Nc1cc(CCc2cnc(NC(=O)Nc3cc(C(C)(C)C)nn3-c3ccc(C)cc3)s2)ccn1 [Compound 284, 1-[4-(2-{2-[3-(5-tert-Butyl-2-p-tolyl-2H-pyrazol-3-yl)-ureido]-thiazol-5-yl}-ethyl)-pyridin-2-yl]-3-ethyl-urea] | < 250 nM | –
7 | Cc1ccc(-n2nc(C(C)(C)C)cc2NC(=O)Nc2ncc(CCc3ccnc(NC(=O)C4CCOCC4)c3)s2)cc1 [Compound 288, Tetrahydro-pyran-4-carboxylic acid [4-(2-{2-[3-(5-tert-butyl-2-p-tolyl-2H-1-pyrazol-3-yl)-ureido]-thiazol-5-yl}-ethyl)-pyridin-2-yl]-amide] | < 250 nM | –
8 | Cc1ccc(-n2nc(C(C)(C)C)cc2NC(=O)Nc2ccc(Oc3ccncc3C)cc2F)cc1 [Compound 300, 1-(5-tert-Butyl-2-p-tolyl-2H-pyrazol-3-yl)-3-[2-fluoro-4-(3-methyl-pyridin-4-yloxy)-phenyl]-urea] | < 250 nM | –
9 | CC(C)(C)c1cc(NC(=O)Nc2ccc(Oc3ccncc3)cc2F)n(-c2ccc(F)cc2)n1 [Compound 303, 1-[5-tert-Butyl-2-(4-fluoro-phenyl)-2H-pyrazol-3-yl]-3-[2-fluoro-4-(pyridin-4-yloxy)-phenyl]-urea] | < 250 nM | –
10 | CC(C)(C)c1cc(NC(=O)Nc2ccc(Oc3ccnc(N)c3)cc2F)n(-c2cccc(F)c2)n1 [Compound 304, 1-[4-(2-Amino-pyridin-4-yloxy)-2-fluoro-phenyl]-3-[5-tert-butyl-2-(3-fluoro-phenyl)-2H-pyrazol-3-yl]-urea] | < 250 nM | –
11 | CC(C)(C)c1cc(NC(=O)Nc2ccc(Oc3ccncc3)cc2F)n(-c2cccc(F)c2)n1 [Compound 306, 1-[5-tert-butyl-2-(3-fluorophenyl)pyrazol-3-yl]-3-[2-fluoro-4-(4-pyridyloxy)phenyl]urea] | < 250 nM | –
12 | CC(C)(C)c1cc(NC(=O)Nc2ccc(Oc3ccncc3)cc2F)n(CC2CC2)n1 [Compound 310, 1-(5-tert-Butyl-2-cyclopropylmethyl-2H-pyrazol-yl)-3-[2-fluoro-4-(pyridin-4-yloxy)-phenyl]-urea] | < 250 nM | –
13 | COC(=O)Nc1cc(CCc2ccc(NC(=O)Nc3cc(C(C)(C)C)nn3-c3ccc(C)cc3)c(F)c2)ccn1 [Compound 315, [4-(2-{4-[3-(5-tert-Butyl-2-p-tolyl-2H-pyrazol-3-yl)-ureido]-3-fluoro-phenyl}-ethyl)-pyridin-2-yl]-carbamic acid methyl ester] | > 1000 nM | –
14 | CC(=O)Nc1cc(CCc2cnc(NC(=O)Nc3cc(C(C)(C)C)nn3CC3CC3)s2)ccn1 [Compound 325, N-[4-(2-{2-[3-(5-tert-Butyl-2-cyclopropylmethyl-2H-pyrazol-3-yl)-ureido]-thiazol-5-yl}-ethyl)-pyridin-2-yl]-acetamide] | < 250 nM | –
15 | CC(=O)Nc1cc(CCc2ccc(NC(=O)Nc3cc(C(C)(C)C)nn3-c3ccc(C)cc3)c(F)c2)ccn1 [Compound 329, N-[4-(2-{4-[3-(5-tert-Butyl-2-p-tolyl-2H-pyrozol-3-yl)-ureido]-3-fluoro-phenyl}-ethyl)-pyridin-2-yl]-acetamide] | < 250 nM | –
16 | Cc1ccc(-n2nc(C(C)(C)C)cc2NC(=O)Nc2ncc(CCc3ccnc(NC(=O)C4CC4)c3)s2)cc1 [Compound 331, Cyclopropanecarboxylic acid [4-(2-{2-[3-(5-tert-butyl-2-p-tolyl-2H-pyrazol-3-yl)-ureido]-thiazol-5-yl}ethyl)-pyridin-2-yl]-amide] | < 250 nM | 11 nM

Row | Compound | IC50 (read-out: MAPK13 inhibition) | IC50 (read-out: MAPK13 IC50)
17 | Cc1ccc(-n2nc(C(C)(C)C)cc2NC(=O)Nc2ncc(CCc3ccnc(NC(=O)C4CCC4)c3)s2)cc1 [Compound 332, Cyclobutanecarboxylic acid [4-(2-{2-[3-(5-tert-butyl-2-p-tolyl-2H-pyrazol-3-yl)-ureido]-thiazol-5-yl}-ethyl)-pyridin-2-yl]-amide] | < 250 nM | 18 nM
18 | CC(C)(C)c1cc(NC(=O)Nc2ncc(CCc3ccnc(NC(=O)C4CC4)c3)s2)n(CC2CC2)n1 [Compound 334, Cyclopropanecarboxylic acid [4-(2-{2-[3-(5-tert-butyl-2-cyclopropylmethyl-2H-pyrazol-3-yl)-ureido]-thiazol-5-yl}-ethyl)-pyridin-2-yl]-amide] | < 250 nM | –
19 | CCOC(=O)Nc1cc(CCc2cnc(NC(=O)Nc3cc(C(C)(C)C)nn3C)s2)ccn1 [Compound 335, [4-(2-{2-[3-(5-tert-Butyl-2-methyl-2H-pyrazol-3-yl)-ureido]-thiazol-5-yl}-ethyl)-pyridin-2-yl]-carbamic acid ethyl ester] | < 250 nM | –
20 | Cc1ccc(-n2nc(C(C)(C)C)cc2NC(=O)Nc2ncc(CCc3ccnc(NC(=O)N4CCCC4)c3)s2)cc1 [Compound 337, Pyrrolidine-1-carboxylic acid [4-(2-{2-[3-(5-tert-butyl-2-p-tolyl-2H-pyrazol-3-yl)-ureido]-thiazol-5-yl}-ethyl)-pyridin-2-yl]-amide] | < 250 nM | –
21 | CC(C)(C)c1cc(NC(=O)Nc2ncc(CCc3ccnc(NC(=O)C4CCC4)c3)s2)n(CC2CC2)n1 [Compound 339, Cyclobutanecarboxylic acid [4-(2-{2-[3-(5-tert-butyl-2-cyclopropylmethyl-2H-pyrazol-3-yl)-ureido]-thiazol-5-yl}-ethyl)-pyridin-2-yl]-airdde] | < 250 nM | –
22 | CCNC(=O)Nc1cc(CCc2cnc(NC(=O)Nc3cc(C(C)(C)C)nn3CC3CC3)s2)ccn1 [Compound 340, 1-[4-(2-{2-[3-(5-tert-Butyl-2-cyclopropylmethyl-2H-pyrazol-3-yl)-uredo]-thiazol-5-yl}-ethyl)-pyridin-2-yl]-3-ethyl-urea] | < 250 nM | –
23 | COCCC(=O)Nc1cc(CCc2cnc(NC(=O)Nc3cc(C(C)(C)C)nn3CC3CC3)s2)ccn1 [Compound 342, N-[4-(2-{2-[3-(5-tert-Butyl-2-cyclopropylmethyl-2H-pyrazol-3-yl)-ureido]-thiazol-5-yl}-ethyl)-pyridin-2-yl]-3-methoxy-propionamide] | < 250 nM | –
24 | Cn1nc(C(C)(C)C)cc1NC(=O)Nc1ncc(CCc2ccnc(NC(=O)C3CC3)c2)s1 [Compound 345, Cyclopropanecarboxylic acid [4-(2-{2-[3-(5-tert-butyl-2-methyl-2H-pyrazol-3-yl)-ureido]-thiazol-5-yl}-ethyl)-pyridin-2-yl]-amide] | < 250 nM | –
25 | CC(C)C(=O)Nc1cc(CCc2cnc(NC(=O)Nc3cc(C(C)(C)C)nn3C)s2)ccn1 [Compound 349, N-[4-(2-{2-[3-(5-tert-Butyl-2-methyl-2H-pyrazol-3-yl)-ureido]-thiazol-5-yl}-ethyl)-pyridin-2-yl]-isobutyramide] | < 250 nM | –
26 | COCC(=O)Nc1cc(CCc2cnc(NC(=O)Nc3cc(C(C)(C)C)nn3C)s2)ccn1 [Compound 350, N-[4-(2-{2-[3-(5-tert-Butyl-2-methyl-2H-pyrazol-3-yl)-ureido]-thiazol-5-yl}-ethyl)-pyridin-2-yl]-2-methoxy-acetamide] | < 250 nM | –
27 | CCNC(=O)Nc1cc(CCc2cnc(NC(=O)Nc3cc(C(C)(C)C)nn3C)s2)ccn1 [Compound 352, 1-[4-(2-{2-[3-(5-tert-Butyl-2-methyl-2H-pyrazol-3-yl)-ureido]-thiazol-5-yl}ethyl)-pyridin-2-yl]-3-ethyl-urea] | < 250 nM | –
28 | Cn1nc(C(C)(C)C)cc1NC(=O)Nc1ncc(CCc2ccnc(NC(=O)C3CCC3)c2)s1 [Compound 353, Cyclobutanecarboxylic acid [4-(2-{2-[3-(5-tert-butyl-2-methyl-2H-pyrazol-3-yl)-ureido]-thiazol-5-yl}-ethyl)-pyridin-2-yl]-amide] | < 250 nM | –
29 | CCOC(=O)Nc1cc(CCc2cnc(NC(=O)Nc3cc(C(F)(F)F)ccc3F)s2)ccn1 [Compound 357, [4-(2-{2-[3-(2-Fluoro-5-trifluoromethyl-phenyl)-ureido]-thiazol-5yl}-ethyl)-pyridin-2-yl]-carbamic acid ethyl ester] | > 1000 nM | –
30 | CC(=O)Nc1cc(CCc2ccc(NC(=O)Nc3cc(C(C)(C)C)on3)c(F)c2)ccn1 [Compound 358, N-[4-(2-{4-[3-(5-tert-Butyl-isoxazol-3-yl)-ureido]-3-fluoro-phenyl}-ethyl)-pyridin-2-yl]-acetamide] | > 1000 nM | –
31 | CC(=O)Nc1cc(CCc2ccc(NC(=O)Nc3cc(C(C)(C)C)no3)c(F)c2)ccn1 [Compound 359, N-[4-(2-{4-[3-(3-tert-Butyl-isoxazol-5-yl)-ureido]-3-fluoro-phenyl}-ethyl)-pyridin-2-yl]-acetamide] | > 1000 nM | –
32 | CC(=O)Nc1cc(CCc2ccc(NC(=O)Nc3cc(C(F)(F)F)ccc3F)c(F)c2)ccn1 [Compound 360, N-[4-(2-{3-Fluoro-4-[3-(2-fluoro-5-trifluoromethyl-phenyl)-ureido]-phenyl}-ethyl)-pyridin-2-yl]-acetamide] | > 1000 nM | –
